Measurements: patent US20020137929A1, “1 - (3-heterocyclylphenyl) isothiourea, -isourea, -guanidine and -amidine herbicidal agents” (Intellectual Property Department, BASF Aktiengesellschaft, priority 1998, published 2002)

Legend:
ORYSAT (Rice, Tebonnet) = experiment: Postemergence herbicidal evaluation; type: in vivo, Oryza sativa, (L.) Tebonnet
Summary of the method: (§1)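 Scores (0–9) reflect plant stand, vigor, malformation, size, chlorosis and general appearance relative to control, read 4 to 5 weeks after treatment and averaged where tests were repeated. Application: about 0.0156–0.500 kg/ha sprayed at 40 psi onto two-week seedlings.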

CYPIR (Rice Flatsedge) [1] = experiment: Postemergence weed control under flooded paddy conditions; type: in vivo, Cyperus iria; conditions: postemergence weeds, rated 3 to 4 weeks after treatment
Summary of the method: (§2)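 With weeds 3 to 5 cm tall and rice at the 1.5 to 2.5 leaf stage, containers were flooded and water held 1.5 to 3 cm above soil. Compounds in 50/50 v/v aqueous/acetone went into the flood water at about 0.0313 to 0.500 kg/ha a.i. Effects were visually rated 0–9 against controls after three to four weeks in the greenhouse.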

GALAP (Galium) = experiment: Postemergence herbicidal evaluation; type: in vivo, Galium aparine
Summary of the method: as §1

CYPIR (Rice Flatsedge) [2] = experiment: Preemergence weed control under flooded paddy conditions; type: in vivo, Cyperus iria; conditions: rated 3-4 weeks after treatment
Summary of the method: (§3)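 Silt loam, seeds in top 0.5 cm; flood held 1.5-3 cm; test cpd as acetone/water 50/50 into flood water, ~0.0313-0.500 kg/ha a.i.; greenhouse 3-4 wk; visual 0-9 score vs control.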

[3] = system: TRZAWR (Wheat, Winter, cv Riband); experiment: Preemergence herbicidal evaluation; type: in vivo, Triticum aestivum; conditions: rated 4-5 weeks after treatment
Summary of the method: (§4)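 Seeds were mixed with potting soil and planted on about one inch of soil, then sprayed with test compound in aqueous acetone at about 0.0156 to 0.500 kg per hectare. Plants grew under standard greenhouse care and were visually rated 0-9 against untreated controls 4-5 weeks post-treatment.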

ZEAMX (Corn, Field) = experiment: Preemergence herbicidal evaluation; type: in vivo, Zea mays; conditions: rated 4-5 weeks after treatment
Summary of the method: as §4

ECHCG (Barnyardgrass) = experiment: Postemergence herbicidal evaluation; type: in vivo, Echinochloa crus-galli
Summary of the method: as §1

ABUTH (Velvetleaf) = experiment: Postemergence herbicidal evaluation; type: in vivo, Abutilon theophrasti
Summary of the method: as §1

[4] = system: ECHORC (Watergrass (Calif.)); experiment: Preemergence weed control under flooded paddy conditions; type: in vivo, Echinochloa oryzoides; conditions: rated 3-4 weeks after treatment
Summary of the method: as §3

[5] = system: IPOHE (Morningglory, Ivyleaf); experiment: Preemergence herbicidal evaluation; type: in vivo, Ipomoea hederacea; conditions: rated 4-5 weeks after treatment
Summary of the method: as §4

MOOVA (Monochoria) = experiment: Preemergence weed control under flooded paddy conditions; type: in vivo, Monochoria vaginalis; conditions: rated 3-4 weeks after treatment
Summary of the method: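 Values are visual 0-9 scores against a control for a preemergence application into paddy flood water at about 0.0313 to 0.500 kg/ha. Greenhouse duration was three to four weeks.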

CYPSE (Flatsedge) = experiment: Postemergence weed control under flooded paddy conditions; type: in vivo, Cyperus serotinus; conditions: postemergence weeds, rated 3 to 4 weeks after treatment
Summary of the method: as §2

[6] = system: SAGPY (Arrowhead (Pygmaea)); experiment: as above; type: in vivo, Sagittaria pygmaea; conditions: postemergence weeds, rated 3 to 4 weeks after treatment
Summary of the method: as §2

SETVI (Foxtail, Green) = experiment: Postemergence herbicidal evaluation; type: in vivo, Setaria viridis
Summary of the method: as §1

In the case of C=CCN1C(=O)C(CC(=O)OC)SC1=Nc1cc(-n2c(=O)cc(C(F)(F)F)n(C)c2=O)c(F)cc1Cl (stereo not drawn) [Compound 64, Methyl 3-allyl-2-{{2-chloro-5-[3,6-dihydro-3-methyl-2,6-dioxo-4-(trifluoromethyl)-1(2H)-pyrimidinyl]-4-fluorophenyl}imino}-4-oxo-5-thiazolidineacetate], the “Postemergence herbicidal rating ORYSAT” value (ORYSAT (Rice, Tebonnet); Rate 0.0158 kg/ha) is reported as 6.0, the “Postemergence herbicidal rating ORYSAT” value (ORYSAT (Rice, Tebonnet); Rate 0.0315 kg/ha) is reported as 6.0 and the “Postemergence herbicidal rating ORYSAT” value (ORYSAT (Rice, Tebonnet); Rate 0.0630 kg/ha) is reported as 6.0. For the same compound, the “Herbicidal rating CYPIR” value (CYPIR (Rice Flatsedge) [1]; Rate 0.0313 kg/ha) was 0.0, the “Herbicidal rating CYPIR” value (CYPIR (Rice Flatsedge) [1]; Rate 0.0625 kg/ha) was 2.0 and the “Herbicidal rating CYPIR” value (CYPIR (Rice Flatsedge) [1]; Rate 0.1250 kg/ha) was 2.0. For the same compound, the “Herbicidal rating CYPIR” value (CYPIR (Rice Flatsedge) [1]; Rate 0.2500 kg/ha) was 7.0, the “Postemergence herbicidal rating GALAP” value (GALAP (Galium); Rate 0.0158 kg/ha) was 5.0 and the “Postemergence herbicidal rating GALAP” value (GALAP (Galium); Rate 0.0315 kg/ha) was 7.0. For the same compound, the “Postemergence herbicidal rating GALAP” value (GALAP (Galium); Rate 0.0630 kg/ha) was 7.0, the “CYPIR herbicidal effect rating” value (CYPIR (Rice Flatsedge) [2]; 0.0313 kg/ha) was 0.0 and the “CYPIR herbicidal effect rating” value (CYPIR (Rice Flatsedge) [2]; 0.0625 kg/ha) was 2.0. The “CYPIR herbicidal effect rating” value (CYPIR (Rice Flatsedge) [2]; 0.1250 kg/ha) was 2.0, the “CYPIR herbicidal effect rating” value (CYPIR (Rice Flatsedge) [2]; 0.2500 kg/ha) was 7.0 and the “Preemergence herbicidal rating TRZAWR” value ([3]; rate 0.0156 kg/ha) was 0.0. The “Preemergence herbicidal rating TRZAWR” value ([3]; rate 0.0313 kg/ha) was 0.0, the “Preemergence herbicidal rating TRZAWR” value ([3]; rate 0.0625 kg/ha) was 1.0 and the “Preemergence herbicidal rating TRZAWR” value ([3]; rate 0.1250 kg/ha) was 1.0. For the same compound, the “Preemergence herbicidal rating TRZAWR” value ([3]; rate 0.2500 kg/ha) was 3.0, the “Preemergence herbicidal rating ZEAMX” value (ZEAMX (Corn, Field); rate 0.0156 kg/ha) was 0.0 and the “Preemergence herbicidal rating ZEAMX” value (ZEAMX (Corn, Field); rate 0.0313 kg/ha) was 0.0. For the same compound, the “Preemergence herbicidal rating ZEAMX” value (ZEAMX (Corn, Field); rate 0.0625 kg/ha) was 1.0, the “Preemergence herbicidal rating ZEAMX” value (ZEAMX (Corn, Field); rate 0.1250 kg/ha) was 3.0 and the “Preemergence herbicidal rating ZEAMX” value (ZEAMX (Corn, Field); rate 0.2500 kg/ha) was 7.0. For the same compound, the “Postemergence herbicidal rating ECHCG” value (ECHCG (Barnyardgrass); Rate 0.0158 kg/ha) was 3.0, the “Postemergence herbicidal rating ECHCG” value (ECHCG (Barnyardgrass); Rate 0.0315 kg/ha) was 5.0 and the “Postemergence herbicidal rating ECHCG” value (ECHCG (Barnyardgrass); Rate 0.0630 kg/ha) was 7.0. For the same compound, the “Postemergence herbicidal rating ABUTH” value (ABUTH (Velvetleaf); Rate 0.0158 kg/ha) was 9.0, the “Postemergence herbicidal rating ABUTH” value (ABUTH (Velvetleaf); Rate 0.0315 kg/ha) was 9.0 and the “Postemergence herbicidal rating ABUTH” value (ABUTH (Velvetleaf); Rate 0.0630 kg/ha) was 9.0. For the same compound, the “ECHORC herbicidal effect rating” value ([4]; 0.0313 kg/ha) was 5.0, the “ECHORC herbicidal effect rating” value ([4]; 0.0625 kg/ha) was 6.0 and the “ECHORC herbicidal effect rating” value ([4]; 0.1250 kg/ha) was 6.0. The “ECHORC herbicidal effect rating” value ([4]; 0.2500 kg/ha) was 9.0, the “Preemergence herbicidal rating IPOHE” value ([5]; rate 0.0156 kg/ha) was 0.0 and the “Preemergence herbicidal rating IPOHE” value ([5]; rate 0.0313 kg/ha) was 0.0. For the same compound, the “Preemergence herbicidal rating IPOHE” value ([5]; rate 0.0625 kg/ha) was 9.0, the “Preemergence herbicidal rating IPOHE” value ([5]; rate 0.1250 kg/ha) was 9.0 and the “Preemergence herbicidal rating IPOHE” value ([5]; rate 0.2500 kg/ha) was 9.0. For the same compound, the “MOOVA herbicidal effect rating” value (MOOVA (Monochoria); 0.0313 kg/ha) was 7.0, the “MOOVA herbicidal effect rating” value (MOOVA (Monochoria); 0.0625 kg/ha) was 9.0 and the “MOOVA herbicidal effect rating” value (MOOVA (Monochoria); 0.1250 kg/ha) was 9.0. For the same compound, the “MOOVA herbicidal effect rating” value (MOOVA (Monochoria); 0.2500 kg/ha) was 9.0, the “Herbicidal rating CYPSE” value (CYPSE (Flatsedge); Rate 0.0313 kg/ha) was 0.0 and the “Herbicidal rating CYPSE” value (CYPSE (Flatsedge); Rate 0.0625 kg/ha) was 0.0. The “Herbicidal rating CYPSE” value (CYPSE (Flatsedge); Rate 0.1250 kg/ha) was 0.0, the “Herbicidal rating CYPSE” value (CYPSE (Flatsedge); Rate 0.2500 kg/ha) was 0.0 and the “Herbicidal rating SAGPY” value ([6]; Rate 0.0313 kg/ha) was 0.0. The “Herbicidal rating SAGPY” value ([6]; Rate 0.0625 kg/ha) was 3.0, the “Herbicidal rating SAGPY” value ([6]; Rate 0.1250 kg/ha) was 5.0 and the “Herbicidal rating SAGPY” value ([6]; Rate 0.2500 kg/ha) was 8.0. For the same compound, the “Postemergence herbicidal rating SETVI” value (SETVI (Foxtail, Green); Rate 0.0158 kg/ha) was 6.0, the “Postemergence herbicidal rating SETVI” value (SETVI (Foxtail, Green); Rate 0.0315 kg/ha) was 7.0 and the “Postemergence herbicidal rating SETVI” value (SETVI (Foxtail, Green); Rate 0.0630 kg/ha) was 9.0.
